From patent publication US11672775B2, “Treprostinil prodrugs” (United Therapeutics Corporation, priority 2016, dated 2023)

How the values were obtained:
Format in all cases: in vivo, Sprague Dawley rat
[1] = tested on: Sprague Dawley rats; assay: Rat intraplantar injection model, clinical observation score (Example 10)
Procedure: (§1) Male Sprague Dawley rats (n=56) were allocated into 7 groups of 8 animals per group. […] Each group was compared to the phosphate buffer (50-mM phosphate buffer with 50-mM sodium chloride at pH=7.4) treated group, which served as the control (Group 1).
(§2) Animals were administered 0.1 mL of test material by subcutaneous injection into the paw pad (Intraplantar injection) at time zero. Then, the animals were subsequently evaluated for their response to mechanical (von Frey filaments) and thermal stimuli, 15 and 90 minutes post-injection. The von Frey test was conducted prior to the thermal test, which followed immediately within minutes for each animal. In addition, clinical observation scoring of the animal's reaction to injection was conducted.
A clinical observation score was assigned by assessing for redness, swelling and paw placement.

[2] = tested on: Sprague Dawley rats; assay: Cardiovascular assessment by radiotelemetry following subcutaneous injection (Example 12)
Procedure: Clinical observations were performed at approximately 6 hours prior to dosing, at the completion of dosing and at approximately 4 hours postdosing.

[3] = tested on: Sprague Dawley rats; assay: Rat intraplantar injection model, von Frey test (Example 10); details: 1 μg/mL or 100 μg/mL; 15 and 90 minutes post-injection
Procedure: as §1, §2
Mechanical pain sensitivity was tested using the von Frey test, which measures the withdrawal force threshold of the animals. The lower the force applied represents a greater sensitivity to the stimulus. The von Frey test was performed 15 and 90 minutes post-test item injection.

[4] = 0.1 mg/kg SC (first statement as printed)

mean clinical score ([1]; 100 μg/mL, each of 15 min and 90 min): non-zero
clinical score vs phosphate buffer treated group (statistically significant increase) ([1]; both doses, 90 minutes): same effect
von Frey withdrawal force threshold vs phosphate buffer group [3]: reduced withdrawal force threshold
SMILES: CCCCC[C@H](O)CC[C@@H]1[C@H]2Cc3cccc(OCC(=O)O)c3C[C@H]2C[C@H]1O [Treprostinil]
body temperature change ([2]; 0.000125 mg/kg or 0.00125 mg/kg SC): No significant changes
diastolic blood pressure change ([2]; 0.03 mg/kg SC): marginally lower
mean blood pressure change ([2]; 0.03 mg/kg SC): marginally lower
mean blood pressure, time of nadir ([2]; 0.03 mg/kg SC): 30 min
systolic blood pressure change ([2]; 0.03 mg/kg SC): marginally lower
body temperature changes resolved by ([2]; 0.1 mg/kg SC): approximately 3 hours
diastolic blood pressure lowering persisted through ([2]; 0.1 mg/kg SC): 90 min
diastolic blood pressure, time of nadir ([2]; 0.1 mg/kg SC): 30 min
mean blood pressure lowering persisted through ([2]; 0.1 mg/kg SC): 90 min
mean blood pressure, time of nadir ([2]; 0.1 mg/kg SC): 30 min
systolic blood pressure lowering persisted through ([2]; 0.1 mg/kg SC): 90 min
systolic blood pressure, time of nadir ([2]; 0.1 mg/kg SC): 30 min
body temperature change [2, 4]: Marginally lower
body temperature change persisted through [2, 4]: approximately 3 hours
body temperature changes resolved by ([2]; 0.3 mg/kg SC): ~4 h
diastolic blood pressure lowering persisted through ([2]; 0.3 mg/kg SC): 180 min
diastolic blood pressure, time of nadir ([2]; 0.3 mg/kg SC): 20 min
mean blood pressure lowering persisted through ([2]; 0.3 mg/kg SC): 180 min
mean blood pressure, time of nadir ([2]; 0.3 mg/kg SC): 20 min
systolic blood pressure lowering persisted through ([2]; 0.3 mg/kg SC): 120 min
systolic blood pressure, time of nadir ([2]; 0.3 mg/kg SC): 20 min
pulse pressure change ([2]; 0.3 mg/kg SC, from 20 to 40 minutes postdosing): Marginally lower
body temperature change ([2]; 0.1 and 0.3 mg/kg SC): Significantly lowered
diastolic blood pressure change ([2]; 0.1 and 0.3 mg/kg SC): Significantly lower
diastolic blood pressure, earliest time point of lowering ([2]; 0.1 and 0.3 mg/kg SC): 10 min
mean blood pressure change ([2]; 0.1 and 0.3 mg/kg SC): Significantly lower
mean blood pressure, earliest time point of lowering ([2]; 0.1 and 0.3 mg/kg SC): 10 min
systolic blood pressure change ([2]; 0.1 and 0.3 mg/kg SC): Significantly lower
systolic blood pressure, earliest time point of lowering ([2]; 0.1 and 0.3 mg/kg SC): 10 min
dose resulting in significantly lower body temperature ([2]; single SC injection): ≥ 0.030 mg/kg
dose resulting in significantly lower systolic, diastolic, mean arterial blood pressure ([2]; single SC injection): ≥ 0.1 mg/kg
heart rate change ([2]; single SC injection, all doses): Higher heart rates
time by which heart rate changes resolved / recovered postdosing ([2]; single SC injection, all groups): approximately 5 hours
diastolic blood pressure change ([2]; ≤0.030 mg/kg SC): No meaningful changes
mean blood pressure change ([2]; ≤0.030 mg/kg SC): No meaningful changes
systolic blood pressure change ([2]; ≤0.030 mg/kg SC): No meaningful changes
